Test results reported in US5476944A, “Derivatives of cyclic phenolic thioethers” (G. D. Searle & Co., priority 1994, dated 1995).

Target: T1, cellular COX-II (Homo sapiens, UniProt P35354)
T1 construct: stimulated human fetal dermal fibroblasts (HFDF, derived from primary cell cultures); endogenous in cells; host or cells: human fetal dermal fibroblasts (HFDF), primary, stimulated with IL-1 beta
T1 sequence (P35354 18-604): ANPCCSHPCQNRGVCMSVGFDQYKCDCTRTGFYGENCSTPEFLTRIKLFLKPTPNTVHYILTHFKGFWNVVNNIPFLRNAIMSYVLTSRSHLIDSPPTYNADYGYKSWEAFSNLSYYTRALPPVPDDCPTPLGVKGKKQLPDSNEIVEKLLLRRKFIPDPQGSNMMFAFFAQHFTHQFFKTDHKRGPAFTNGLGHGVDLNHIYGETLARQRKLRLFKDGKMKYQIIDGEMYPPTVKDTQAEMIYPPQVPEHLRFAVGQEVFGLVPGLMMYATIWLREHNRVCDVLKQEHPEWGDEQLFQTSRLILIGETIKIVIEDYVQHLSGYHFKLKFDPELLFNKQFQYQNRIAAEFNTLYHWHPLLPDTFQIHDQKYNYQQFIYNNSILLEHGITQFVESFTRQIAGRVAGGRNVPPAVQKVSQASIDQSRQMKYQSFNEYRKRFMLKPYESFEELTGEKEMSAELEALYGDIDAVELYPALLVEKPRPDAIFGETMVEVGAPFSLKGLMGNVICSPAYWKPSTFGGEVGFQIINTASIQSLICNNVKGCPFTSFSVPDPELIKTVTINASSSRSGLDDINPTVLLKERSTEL
Test: Cellular COX-II Assay (Cell Fibroblast Assay), IL-1 stimulated human fetal dermal fibroblasts, PGE2
Format: cell-based
Conditions: IL-1 beta stimulated human fetal dermal fibroblasts
Description: The compounds of the invention are evaluated with respect to the inhibition of cellular COX-II in vitro according to the following Cellular COX-II Assay (Cell Fibroblast Assay).
Cellular COX-II Assay (Cell Fibroblast Assay)
Inhibition of cellular COX-II by test compounds is determined using stimulated human fetal dermal fibroblasts (HFDF, derived from primary cell cultures). Fibroblasts are cultured in microtiter wells at 1.5×10^4 cells/well in Dulbecco's Modified Eagle's Media (DMEM)(Gibco/BRL, Gaithersburg, Md. Sigma Chemical Co., St. Louis, Mo.) containing 4500 mg glucose/L, 100 units penicillin G/ml and 0.1 mg streptomycin/ml, 4 mM L-glutamine, 25 mM Hepes and 10% Fetal Bovine Serum (Gibco/BRL, Gaithersburg, Md. Bioproducts For Science, Inc., Indianapolis,Ind.). Following a 3-day incubation at 37° C., the culture media is removed by aspiration using low vacuum, and the cells are stimulated overnight with medium containing human recombinant IL-1 (interleukin-1) beta (1 ng/ml)(Cistron, Pine Brook, N.J.). The next day, the fibroblasts are washed with Phosphate Buffered Saline, and 185 μl of DMEM is added to each well. The cells are placed in a 37° C. incubator for 15 minutes. Compounds are then added to the cells using seven half-log dilutions in duplicate determinations. Cells are incubated with test compounds at 37° C. for 30 minutes. The COX-II substrate arachidonic acid (20 μM; Nu-Chek-Prep Inc., Elysian, Minn.) is then added to the cell cultures and the plates are incubated for 10 minutes at 37° C. Supernatants are collected and Prostaglandin E2 (PGE2) production is measured by an enzyme-linked immunosorbent assay (ELISA; antibodies produced by Cayman Chemical Company, Ann Arbor, Mich.). […] PG,60
The following is a description of how the activities of the compounds of the present invention may be determined.
A run of this assay consists of one (or more) plates, each containing, along with the standard (in row A), (1) two wells of unstimulated material (in col. 12), (2) five wells of stimulated material (in col. 12), (3) seven wells (one per concentration) for indomethacin (in col. 11), and (4) two wells at each of seven concentrations for five test compounds, one of which is a repeat of indomethacin. The response (ng/ml Eicosanoid) is estimated from the Standard curve and is highest at low concentrations and decreases as the concentration increases. If the response is plotted on the y-axis and the log of the concentration is plotted on the x-axis, the dose-response pattern for these assays is typically a symmetrical, sigmoidal shaped curve. If a full range of concentrations is used, the complete sigmoidal curve may be seen, starting with an upper asymptote, falling at some degree of steepness, and then leveling off at a lower asymptote. The IC50 is defined as the concentration corresponding to a response midway between the upper and lower plateaus. A theoretic "dose-response" model is used to estimate the IC50.
The procedure described below was used to define the minimum and maximum responses for the compounds on a plate.
The procedure uses information for indomethacin and the rest of the plate in defining the minimum and maximum response. The justification for doing this is as follows. Enough runs have been done with indomethacin to determine and use a range of concentrations such that the response to the lowest concentrations is on the upper plateau of the sigmoidal curve and the response to the highest concentrations is on the lower plateau of the sigmoidal curve. For the other compounds, if a response is measured which is less than the response for the unstimulated wells, then this response may be considered to be another estimate of a minimal response. Likewise, if a response is measured which is greater than the response for the stimulated wells, then this response may be considered to be another estimate of a maximal response. Based on this reasoning, the minimum is estimated as follows: […]

In the case of CC(C)(C)c1cc(S[C@H]2CCCC[C@H]2OCC(=O)O)cc(C(C)(C)C)c1 (racemic) [Example 72, (±)cis-2-[[2-[[3,5-bis(1,1-dimethylethyl)phenyl]thio]cyclohexyl]oxy]acetic acid], the IC50 is reported as 370 nM.
